Source: patent US20090281025A1, “INHIBITION OF TUMOR GROWTH AND METASTASIS BY ATF2-DERIVED PEPTIDES” (Mount Sinai School Of Medicine of New York University, priority 2004, published 2009)
“Also recorded” adds a separate entry of the source.

Legend:
[1] = tested on: Human melanoma cells LU1205; experiment: Caspase and PARP cleavage immunoblot in LU1205 cells; format: cell-based; conditions: peptides by transfection, UCN-01 (5 μm) 24 hours
Description: (§1) Human melanoma cells LU1205 were transfected with the nucleic acid molecules that encode either ATF2^51-100 peptide or ATF2^51-60 peptide. Twenty-four hours after transfection, cells were treated with of UCN-01 (5 μm) for 24 hours. Immunoblotting analysis was performed using caspase 9 and PARP antibodies, and β-actin was used as a loading control (FIG. 6A). The same experiment was performed in SW-1 cells (FIG. 6B). Stars point to the position of the uncleaved form whereas arrows point to the cleaved products.
(§2) Effect on Apoptosis. Assessed next was the degree of apoptosis in SW1 cells under normal growth (spontaneous) as well as following treatment with chemotherapeutic drugs. Cells were analyzed to detect spontaneous (basal) or induced apoptosis [following treatment with the kinase inhibitor UCN-01 (kindly provided by NCI repository) for 36 hours]. Apoptosis was measured by using FACS (Ivanov et al., Mol. Cell, 2001, 7:517-28) to quantify the percentage of hypodiploid nuclei undergoing DNA fragmentation. Nucleation as a marker of apoptosis was monitored via DAPI staining of cells at indicated time points after their treatment. Caspase activity was monitored by immunoblots using antibodies to caspase 9 (Santa Cruz). PARP cleavage was monitored by corresponding antibodies (PharMingen).

[2] = tested on: SW-1 cells; experiment: Caspase and PARP cleavage immunoblot in SW-1 cells; format: cell-based, mouse; conditions: peptides by transfection, UCN-01 (5 μm) 24 hours
Description: as §1, §2

[3] = tested on: Jun2-Luc; experiment: Jun2-Luc luciferase reporter assay in SW1 cells; format: cell-based, mouse; conditions: SW1 cells expressing peptide, luciferase after 18 hours
Description: (§3) SW1 cells constitutively expressing the indicated ATF2 peptides were transfected with either TRE-Luc (FIG. 5A) or with Jun2-Luc (FIG. 5B), and proteins were prepared for analysis of luciferase activity after 18 hours. Analysis was performed in duplicate, and the data reflect three independent experiments. SW1 cells expressing the ATF2 peptides were analyzed to establish the degree of spontaneous (basal) apoptosis as well as apoptosis 24 hours following treatment with the chemotherapeutic drug UCN-01 (FIG. 5C). The data represent triplicate analysis reproduced three times.
(§4) Alteration of ATF2 Transcriptional Activity. Assessed next was whether the short peptide caused any change in transcriptional activity mediated by ATF2 and its heterodimeric partners, using the TRE and Jun2 promoter sequences linked to the Luciferase marker gene. These reporter constructs (0.3 μg) were cotransfected with the respective expression vectors into melanoma cells (5×10^5) using Lipofectamine (Invitrogen). Luciferase activity was measured using the Luciferase assay system (Promega).

[4] = tested on: SW1 melanoma cells; experiment: Apoptosis of SW1 cells by FACS (hypodiploid nuclei); format: cell-based, mouse; conditions: SW1 cells expressing peptide, treated with UCN-01; given as control-to-peptide increase
Description: as §3, §2

[5] = molecular target: T1, JNK-c-Jun association (Homo sapiens, UniProt P45984); experiment: In vitro association of bead-bound JNK with c-Jun; format: binding; conditions: 35S-labeled in vitro translated c-Jun, synthetic peptide
T1 construct: made in house; host or cells: JNK2 from transfected 293T cells; c-Jun from the TNT-coupled reticulocyte lysate system (Promega)
Description: (§5) HA-JNK was transfected into 293T cells and 24 h later JNK was immunoprecipitated and bound to protein G beads. Bead-bound JNK was incubated with in vitro-translated c-Jun or ATF2 in the absence or presence of the wt or mutant form of ATF2^51-60. Following incubation bead-bound JNK was washed (see Example 4) and the amount of bound Jun or ATF2 was assessed via SDS-PAGE analysis subjected to autoradiography (Panel A) and quantification with the aid of a phosphor imager (Panels B and C).
(§6) Effect on JNK/Jun Association. The short peptide's ability to elicit major changes in TRE-dependent transcription and spontaneous apoptosis led to an assessment of possible changes in the JNK-Jun association. Flag JNK2 expressed in 293T cells extracted, immunopurified with anti-Flag antibody bound to Protein G agarose beads were first incubated with 3 mg/ml of BSA in phosphate-buffered saline for 2 h, followed by incubation at 4° C. for 2 h with ^35S-labeled in vitro translated c-Jun or ATF2 (TNT-coupled reticulocyte lysate system, Promega) in the presence of WT or mutant peptide. Bead-bound material was subjected to three washes with 20 mM Tris [pH 7.5], 150 mM NaCl, 1 mM EDTA, 1 mM EGTA, 0.5% NP-40, 1 mM NaVO4, and 1 mM DTT supplemented with protease inhibitors. […] Binding was detected by autoradiography and quantified with the aid of a phosphorimager. […]

[6] = molecular target: T2, JNK-ATF2 association (Homo sapiens, UniProt P45984); experiment: In vitro association of bead-bound JNK with ATF2; format: binding; conditions: 35S-labeled in vitro translated ATF2, synthetic peptide
T2 construct: made in house; host or cells: JNK2 from transfected 293T cells; ATF2 from the TNT-coupled reticulocyte lysate system (Promega)
Description: as §5, §6

[7] = tested on: SW1 cells; experiment: Tumor growth of SW1 cells constitutively expressing ATF2 peptides, injected subcutaneously; format: in vivo, mouse; conditions: constitutive expression, 18 days
Description: SW1 cells, which constitutively express the peptides indicated in FIG. 4A, were analyzed to detect expression of ATF2 peptides at the RNA level using RT-PCR. The indicated MW bands reflect the expected size product. SW1 cells (10^6) were injected subcutaneously into […] mice and tumor growth was monitored for 18 days, at which point tumors were removed and their size carefully assessed (FIG. 4B). Each group included 6 animals and each experiment was performed twice (P<0.01; T-test).
Inhibition of Tumor Growth. To examine the importance of the JNK association domain on ATF2, the possible role of a smaller peptide containing an intact JNK binding site (i.e., amino acids M^51T^52 of ATF2) was examined. To this end, three peptides of differing sizes (amino acids 51-80, 51-70, and 51-60) were compared to ATF2^51-100 peptide in their ability to inhibit tumor growth of SW1 cells in vivo. RT-PCR reactions confirmed the expression of these peptides' transcripts in the SW1 cells (FIG. 4A). […] However, expression of the 50aa peptide in these cells (constitutive expression based on selection of drug-resistant cells) decreased tumor size to 300 mm^3. Strikingly, constitutive expression of each of the 3 shorter peptides also elicited inhibition of melanoma growth that varied from 400-600 mm^3 (FIG. 4B). […] Further evaluation was performed on this 10 amino acid peptide.

[8] = tested on: TRE-Luc; experiment: TRE-Luc luciferase reporter assay in SW1 cells; format: cell-based, mouse; conditions: SW1 cells expressing peptide, luciferase after 18 hours
Description: as §3, §4

JNK-ATF2 association [6]	Compound	PARP cleavage [1]	activation of caspase 9 (cleavage fragments) [1]	PARP cleavage [2]	activation of caspase 9 (cleavage fragments) [2]	Jun2-Luc transcriptional activity [3]	Jun2-Luc transcriptional activity ([3]; listed as 51-60 amino acid peptide)	UCN-01-induced apoptosis [4]	association between JNK and c-Jun [5]	inhibition of SW1 melanoma growth in vivo [7]	inhibition of SW1 melanoma growth in vivo ([7]; listed as 51-60)	TRE-Luc activity [8]
	CN[C@@H]1C[C@H]2O[C@@](C)([C@@H]1OC)n1c3ccccc3c3c4c(c5c6ccccc6n2c5c31)C(=O)N[C@@H]4O [UCN-01, reference compound]	PARP cleavage was observed	caused activation of caspase 9	PARP cleavage was observed	caused activation of caspase 9							
not observed	ATF2^51-60: ATF2 peptide from amino acid residue 51 to 60 (about a 10 amino acid peptide); expressed in cells or synthesized (MTLKFGPARN; UniProt P15336 51-60, looked up, fragment)		activation of caspase 9 even prior to treatment with UCN-01		activation of caspase 9 even prior to treatment with UCN-01	does not significantly affect Jun2-Luc activity	no longer inhibited and slightly elevated	20-40%	increases the in vitro association between JNK and c-Jun in a dose-dependent manner; also recorded: increases Jun association with JNK	inhibits melanoma growth in vivo	efficient inhibition close to that observed with the 50 amino acid peptide	efficient in increasing TRE-Luc activities; also recorded: increases TRE-Luc activity
	ATF2^51-70: ATF2 peptide from amino acid residue 51 to 70 (about a 20 amino acid peptide) (MTLKFGPARNDSVIVADQTP; UniProt P15336 51-70, looked up, fragment)									efficient inhibition close to that observed with the 50 amino acid peptide		
